#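 These data come from cells grown in 96-well plates and exposed to compound for 48 hours at five concentrations. GI50 = concentration required for 50% inhibition of growth.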 Activity calls are given as the source filed them. No stated cut-off is given here; in the data, active = GI50 up to about 1.1 µM and inactive = higher.
# What was measured:
# Assay in all cases: NCI tumour cell line growth inhibition, 48 h
# [1] = test system: ACHN
# [2] = test system: CAKI-1
# [3] = test system: COLO 205
# [4] = test system: HCC 2998
# [5] = test system: HL-60
# [6] = test system: HOP-62
# [7] = test system: KM12
# [8] = test system: Malme-3M
# [9] = test system: NCI-H226
# [10] = test system: NCI-H460
# [11] = test system: OVCAR-3
# [12] = test system: PC-3
# [13] = test system: SF-539
# [14] = test system: SK-MEL-5
# [15] = test system: SR
# [16] = test system: SW-620
# [17] = test system: UACC-62
# [18] = test system: LOX IMVI
# [19] = test system: RPMI-8226
# [20] = test system: HOP-92
Compound,GI50 [1],GI50 [2],GI50 [3],GI50 [4],GI50 [5],GI50 [6],GI50 [7],GI50 [8],GI50 [9],GI50 [10],GI50 [11],GI50 [12],GI50 [13],GI50 [14],GI50 [15],GI50 [16],GI50 [17],GI50 [18],GI50 [19],GI50 [20]
O=C(O)Cn1ccc(=O)c2ccc([N+](=O)[O-])cc21,> 100 µM (inactive),> 100 µM (inactive),> 100 µM (inactive),> 100 µM (inactive),> 100 µM (inactive),> 100 µM (inactive),> 100 µM (inactive),> 100 µM (inactive),> 100 µM (inactive),> 100 µM (inactive),> 100 µM (inactive),> 100 µM (inactive),> 100 µM (inactive),> 100 µM (inactive),> 100 µM (inactive),> 100 µM (inactive),> 100 µM (inactive),,,
O/N=C(/C(Cl)=C(Cl)Cl)C(Cl)Cl,17.9 µM (inactive),33.6 µM (inactive),20.7 µM (inactive),31.4 µM (inactive),8.28 µM (inactive),23.3 µM (inactive),22.4 µM (inactive),28.8 µM (inactive),31 µM (inactive),37.2 µM (inactive),19.6 µM (inactive),17.3 µM (inactive),21.5 µM (inactive),19.5 µM (inactive),10.8 µM (inactive),20.4 µM (inactive),24.7 µM (inactive),17.2 µM (inactive),14.2 µM (inactive),
Cc1ccc(C2=C(C#N)C(=O)N3CCN=C3S2)cc1,45.1 µM (inactive),> 100 µM (inactive),> 100 µM (inactive),> 100 µM (inactive),,,> 100 µM (inactive),43.5 µM (inactive),> 100 µM (inactive),> 100 µM (inactive),> 100 µM (inactive),> 100 µM (inactive),> 100 µM (inactive),> 100 µM (inactive),> 100 µM (inactive),> 100 µM (inactive),> 100 µM (inactive),> 100 µM (inactive),,> 100 µM (inactive)
OC[C@H]1N[C@H](CO)[C@@H](O)[C@H]1O,> 100 µM (inactive),> 100 µM (inactive),> 100 µM (inactive),> 100 µM (inactive),> 100 µM (inactive),> 100 µM (inactive),> 100 µM (inactive),> 100 µM (inactive),> 100 µM (inactive),,,> 100 µM (inactive),> 100 µM (inactive),> 100 µM (inactive),> 100 µM (inactive),> 100 µM (inactive),> 100 µM (inactive),> 100 µM (inactive),> 100 µM (inactive),
COc1cc2nc(-c3cccs3)nc(Cl)c2cc1OC,> 100 µM (inactive),80.2 µM (inactive),> 100 µM (inactive),,> 100 µM (inactive),> 100 µM (inactive),> 100 µM (inactive),> 100 µM (inactive),> 100 µM (inactive),> 100 µM (inactive),93.3 µM (inactive),> 100 µM (inactive),> 100 µM (inactive),12 µM (inactive),0.339 µM (active),> 100 µM (inactive),> 100 µM (inactive),,,
N#C/C=c1/c2ccccc2n2nc3ccccc3c12,6.71 µM (inactive),6.85 µM (inactive),16.8 µM (inactive),26.5 µM (inactive),> 100 µM (inactive),17 µM (inactive),17.3 µM (inactive),46.6 µM (inactive),,8.09 µM (inactive),34.5 µM (inactive),68.4 µM (inactive),8.69 µM (inactive),26.7 µM (inactive),5.79 µM (inactive),25.6 µM (inactive),14.9 µM (inactive),8.13 µM (inactive),7.36 µM (inactive),
O=C1NC(=S)N/C1=C/c1c(-c2ccccc2)[nH]c2ccccc12,17.4 µM (inactive),18.2 µM (inactive),17.9 µM (inactive),21.1 µM (inactive),7.31 µM (inactive),15.5 µM (inactive),14.6 µM (inactive),13.5 µM (inactive),16.3 µM (inactive),12.9 µM (inactive),16.1 µM (inactive),12.9 µM (inactive),17.4 µM (inactive),13 µM (inactive),6.32 µM (inactive),17.1 µM (inactive),11.7 µM (inactive),10.9 µM (inactive),8.73 µM (inactive),
COc1cc(CNc2nc3cc(C(F)(F)F)ccc3nc2C(=O)O)cc(OC)c1OC,26.4 µM (inactive),25.3 µM (inactive),22.6 µM (inactive),41.4 µM (inactive),0.1 µM (active),18.5 µM (inactive),24.7 µM (inactive),38.6 µM (inactive),60.7 µM (inactive),25.4 µM (inactive),24.3 µM (inactive),21.5 µM (inactive),15.2 µM (inactive),,33.3 µM (inactive),31.6 µM (inactive),15.5 µM (inactive),31.4 µM (inactive),,
O=c1c2ccccc2n2c(S)nnc2n1-c1ccccc1,> 100 µM (inactive),> 100 µM (inactive),> 100 µM (inactive),> 100 µM (inactive),> 100 µM (inactive),> 100 µM (inactive),> 100 µM (inactive),> 100 µM (inactive),> 100 µM (inactive),> 100 µM (inactive),> 100 µM (inactive),> 100 µM (inactive),> 100 µM (inactive),> 100 µM (inactive),> 100 µM (inactive),> 100 µM (inactive),> 100 µM (inactive),> 100 µM (inactive),,
Clc1ccc(C2=NNC(c3cccc(Cl)c3)C2)cc1 (configuration not stated),,26.2 µM (inactive),15.9 µM (inactive),,34.5 µM (inactive),32.2 µM (inactive),35.9 µM (inactive),28.1 µM (inactive),35.6 µM (inactive),28.5 µM (inactive),28.6 µM (inactive),24.9 µM (inactive),37.2 µM (inactive),14.8 µM (inactive),41.9 µM (inactive),23.2 µM (inactive),28.8 µM (inactive),16 µM (inactive),17.1 µM (inactive),10.8 µM (inactive)
Oc1ccc2c(c1)CCc1c-2n(CCN2CCOCC2)c2ccc(O)cc12,16.1 µM (inactive),24.8 µM (inactive),56.2 µM (inactive),,55.6 µM (inactive),43.4 µM (inactive),20.8 µM (inactive),25.3 µM (inactive),22.8 µM (inactive),33.2 µM (inactive),48.6 µM (inactive),35.3 µM (inactive),27.9 µM (inactive),15.7 µM (inactive),> 100 µM (inactive),44.9 µM (inactive),20.6 µM (inactive),41.2 µM (inactive),29.1 µM (inactive),
C=C1CC/C=C(/C(=O)O)CC[C@H]2[C@@H]1CC2(C)C,> 100 µM (inactive),> 100 µM (inactive),> 100 µM (inactive),> 100 µM (inactive),> 100 µM (inactive),> 100 µM (inactive),> 100 µM (inactive),> 100 µM (inactive),> 100 µM (inactive),> 100 µM (inactive),> 100 µM (inactive),> 100 µM (inactive),> 100 µM (inactive),> 100 µM (inactive),,> 100 µM (inactive),> 100 µM (inactive),> 100 µM (inactive),> 100 µM (inactive),70 µM (inactive)
CC1(C)O[C@@H](CBr)C[C@H](C[C@H]2C[C@@H](O)C[C@@H](CCOCc3ccccc3)O2)O1,23.2 µM (inactive),27.8 µM (inactive),17 µM (inactive),24.6 µM (inactive),,20.1 µM (inactive),21.5 µM (inactive),17.3 µM (inactive),17.5 µM (inactive),29.9 µM (inactive),19.4 µM (inactive),20.1 µM (inactive),,30.3 µM (inactive),27.7 µM (inactive),31.6 µM (inactive),18.4 µM (inactive),26.2 µM (inactive),27.5 µM (inactive),25.5 µM (inactive)
CC(=O)Nc1cc(C(=O)Nc2cc(C(=O)Nc3cc(C(=O)Nc4cc(C(=O)Nc5cc(C(=O)NCCC(=O)NCCCN(C)C)n(C)c5)n(C)c4)n(C)c3)n(C)c2)n(C)c1,> 100 µM (inactive),19.5 µM (inactive),46.8 µM (inactive),50.4 µM (inactive),41.2 µM (inactive),> 100 µM (inactive),23.6 µM (inactive),27.5 µM (inactive),> 100 µM (inactive),> 100 µM (inactive),> 100 µM (inactive),> 100 µM (inactive),44.5 µM (inactive),> 100 µM (inactive),,69.5 µM (inactive),,37.4 µM (inactive),> 100 µM (inactive),33.5 µM (inactive)
O=C1/C(=C/c2ccc([N+](=O)[O-])cc2)C(=O)N(c2ccccc2)C1c1ccccc1 (configuration not stated),> 10 µM (inactive),> 10 µM (inactive),> 10 µM (inactive),> 10 µM (inactive),> 10 µM (inactive),> 10 µM (inactive),> 10 µM (inactive),,> 10 µM (inactive),> 10 µM (inactive),> 10 µM (inactive),> 10 µM (inactive),> 10 µM (inactive),> 10 µM (inactive),> 10 µM (inactive),> 10 µM (inactive),> 10 µM (inactive),> 10 µM (inactive),> 10 µM (inactive),

# — ChEMBL document CHEMBL1201862, “PubChem BioAssay data set” (2004)
